Laboratory results published in article PMC4146477, “Synthesis and Antimycobacterial and Photosynthesis-Inhibiting Evaluation of 2-[(E)-2-Substituted-ethenyl]-1,3-benzoxazoles” (The Scientific World Journal, 2014).
Converted amounts (≈) assume the structure as drawn. “And” between values parts separate entries of the source, which are not always exact repeats. Equal values may be shown once. Read-outs that look alike come from different tables or passages of the source.

How the values were obtained:
[1] = Lipophilicity determination by RP-HPLC (capacity factor k / log k); type: physicochemical; details: C18, MeOH 70% / H2O 30%, isocratic
Source text: A Waters Alliance 2695 XE HPLC separation module and a Waters Photodiode Array Detector 2996 (Waters Corp., Milford, MA, USA) were used. A Symmetry C18 5 μm, 4.6 × 250 mm, Part No. WAT054275 (Waters Corp., Milford, MA, USA) chromatographic column was used. The HPLC separation process was monitored by Empower 2 Chromatography Data Software, Waters 2009 (Waters Corp., Milford, MA, USA). A mixture of MeOH p.a. (70%) and H2O-HPLC - Mili-Q Grade (30%) was used as a mobile phase. The total flow of the column was 1.0 mL/min, injection volume, 30 μL, column temperature, 45°C, and sample temperature, 10°C. The detection wavelength of 210 nm was chosen. The KI methanolic solution was used for the dead time (t D) determination. Retention times (t R) were measured in minutes. The capacity factors k were calculated using the Empower 2 Chromatography Data Software according to formula k = (t R − t D)/t D, where t R is the retention time of the solute, whereas t D denotes the dead time obtained using an unretained analyte.
Lipophilicity is a property that has a major effect on ADME/Tox properties as well as pharmacological activity, because drugs mostly cross biological membranes through passive transport, which strongly depends on their lipophilicity. Lipophilicity has been studied and applied as an important drug property for decades. This parameter was measured by means of RP-HPLC and expressed as logarithm of capacity factor k. The procedure was performed under isocratic conditions with methanol as an organic modifier in the mobile phase using an end-capped nonpolar C18 stationary RP column. The hydrophobic contributions (expressed as distributive parameters π) of individual substituents in C(2) position of 2-[(E)-2-substituted-ethenyl]-1,3-benzoxazole scaffold were predicted using ACD/Percepta ver. 2012 (Advanced Chemistry Development, Inc., Toronto, ON, Canada). The results are shown in Table 1 and the match of the experimental determined lipophilicity log k with calculated distributive parameters π is illustrated in Figure 1.

[2] = test system: Mycobacterium tuberculosis My 331/88; assay: In vitro antimycobacterial evaluation (MIC, Sula semisynthetic medium); type: cell-based
[3] = test system: M. avium My 330/88; assay: as above; type: cell-based; details: Mycobacterium avium
[4] = test system: M. kansasii My 235/80; assay: as above; type: cell-based; details: Mycobacterium kansasii
[5] = test system: photosynthetic electron transport (PET) in spinach chloroplasts; assay: Inhibition of photosynthetic electron transport (PET) in spinach chloroplasts (DCPIP photoreduction); type: biochemical, Spinacia oleracea L.; details: DCPIP as electron acceptor
Protocol: Chloroplasts were prepared from spinach (Spinacia oleracea L.) according to Masarovicova and Kralova. The inhibition of photosynthetic electron transport (PET) in spinach chloroplasts was determined spectrophotometrically (Genesys 6, Thermo Scientific), using an artificial electron acceptor 2,6-dichlorophenol-indophenol (DCPIP) according to Kralova et al., and the rate of photosynthetic electron transport was monitored as a photoreduction of DCPIP. The measurements were carried out in phosphate buffer (0.02 mol/L, pH 7.2) containing sucrose (0.4 mol/L), MgCl2 (0.005 mol/L), and NaCl (0.015 mol/L). The chlorophyll content was 30 mg/L in these experiments and the samples were irradiated (~100 W/m^2 with 10 cm distance) with a halogen lamp (250 W) using a 4 cm water filter to prevent warming of the samples (suspension temperature 22°C). The studied compounds were dissolved in DMSO due to their limited water solubility. […] The inhibitory efficiency of the studied compounds was expressed by IC50 values, that is, by molar concentration of the compounds causing 50% decrease in the oxygen evolution rate relative to the untreated control.

[6] = MY331/88, 336 h, 14d incubation
[7] = MY331/88, 504 h, 21d incubation
[8] = MY330/88, 336 h, 14d incubation
[9] = MY330/88, 504 h, 21d incubation
[10] = MY235/80, 336 h, 14d incubation, read-out: MIC MK
[11] = MY235/80, 504 h, 21d incubation, read-out: MIC MK

Row | Compound | log k [1] | MIC [2, 6] | MIC [2, 7] | MIC [3, 8] | MIC [3, 9] | MIC [4, 10] | MIC [4, 11] | IC50 [5] | MIC ([4]; MY235/80, incubation time not stated, read-out: inhibitory activity (MIC) against M. kansasii)
1 | C(=C\c1nc2ccccc2o1)/c1ccc2c(c1)CCO2 [Compound 8, 2-[(E)-2-(2,3-Dihydro-1-benzofuran-5-yl)ethenyl]-1,3-benzoxazole] | 0.9397 | 62.5 µM (≈ 16.5 µg/mL) | 62.5 µM (≈ 16.5 µg/mL) | 32 µM (≈ 8.43 µg/mL) | 32 µM (≈ 8.43 µg/mL) | 62.5 µM (≈ 16.5 µg/mL) | 250 µM (≈ 65.8 µg/mL) | 131 µM | –
2 | C(=C\c1nc2ccccc2o1)/c1ccco1 [Compound 9, 2-[(E)-2-(Furan-2-yl)ethenyl]-1,3-benzoxazole] | – | 62.5 µM (≈ 13.2 µg/mL) | 125 µM (≈ 26.4 µg/mL) | 62.5 µM (≈ 13.2 µg/mL) | 125 µM (≈ 26.4 µg/mL) | 125 µM (≈ 26.4 µg/mL) | 125 µM (≈ 26.4 µg/mL) | 224 µM | –
3 | CCc1ccc(/C=C/c2nc3ccccc3o2)o1 [Compound 10, 2-[(E)-2-(5-Ethylfuran-2-yl)ethenyl]-1,3-benzoxazole] | 1.0702 | 250 µM (≈ 59.8 µg/mL) | 250 µM (≈ 59.8 µg/mL) | 250 µM (≈ 59.8 µg/mL) | 250 µM (≈ 59.8 µg/mL) | 62.5 µM (≈ 15 µg/mL) | 250 µM (≈ 59.8 µg/mL) | 122 µM | –
4 | C(/C=C/c1nc2ccccc2o1)=C\c1ccccc1 [Compound 11, 2-[(1E,3E)-4-Phenylbuta-1,3-dien-1-yl]-1,3-benzoxazole] | – | 125 µM (≈ 30.9 µg/mL) | 250 µM (≈ 61.8 µg/mL) | 250 µM (≈ 61.8 µg/mL) | 500 µM (≈ 124 µg/mL) | 500 µM (≈ 124 µg/mL) | 500 µM (≈ 124 µg/mL) | 778 µM | 500 µM (≈ 124 µg/mL)
5 | COc1ccc(/C=C/C=C/c2nc3ccccc3o2)cc1 [Compound 12, 2-[(1E,3E)-4-(4-Methoxyphenyl)buta-1,3-dien-1-yl]-1,3-benzoxazole] | 1.1394 | 125 µM (≈ 34.7 µg/mL) | 250 µM (≈ 69.3 µg/mL) | 125 µM (≈ 34.7 µg/mL) | 125 µM (≈ 34.7 µg/mL) | 125 µM (≈ 34.7 µg/mL) | 250 µM (≈ 69.3 µg/mL) | 351 µM | –
6 | CN(C)C(=O)Nc1ccc(Cl)c(Cl)c1 [DCMU, 3-(3,4-dichlorophenyl)-1,1-dimethylurea, reference compound] | – | – | – | – | – | – | – | ~1.9 µM and 1.9 µM | –
7 | NNC(=O)c1ccncc1 [INH, isoniazid, reference compound] | – | 0.5 µM (≈ 0.0686 µg/mL) | 0.5 µM (≈ 0.0686 µg/mL) | > 250 µM | > 250 µM | > 250 µM | > 250 µM | – | –
